Test results taken from patent US20140242707A1, “Compositions and Methods for Diagnosing Hypercoagulability and Hypocoagulability” (Philadelphia Health & Education Corporation d/b/a Drexel …, priority 2011, published 2014).

Tested on: Pooled normal plasma
Assay: Thrombelastography of tissue factor-activated pooled normal plasma (Example 1)
Assay type: biochemical, human
Method: Pooled normal plasma (George King Bio-Medical, Overland Park, Kans., USA) anticoagulated with sodium citrate was utilized for experimentation. The lot of plasma used for all experimentation was #1853, with a prothrombin time of 12.3 sec, an activated partial thromboplastin time of 29.3 sec, and a fibrinogen concentration >250 mg/dl. The final volume for all subsequently described plasma sample mixtures was 359.2 μl. Sample composition consisted of 322 μl of plasma; 10 μl of tissue factor reagent (0.1% final concentration in dH2O; Instrumentation Laboratory, Lexington, Mass., USA), 3.6 μl of dH2O or dH2O containing the organic reductant phenylhydroxylamine (PHA, 0-30 mM final concentration, Sigma-Aldrich, Saint Louis, Mo., USA), 3.6 μl of dimethyl sulfoxide (DMSO) or DMSO with CORM-2 (0-400 μM final concentration; Sigma-Aldrich) and 20 μl of 200 mM CaCl2. PHA was chosen as the agent to convert fibrinogen-associated, heme-bound Fe^+2 to an Fe^+3 state (1978, Castro et al., Biochemistry 17:225-231; 1986, Harrison and Jollow, J Pharmacol Exp Ther 238:1045-1054; 1987, Harrison and Jollow, Mol Pharmacol 32:423-431; 1999, Ciccoli et al., Toxicol Lett 110:57-66). Stock solutions of CORM-2 were made just before each experiment. Tissue factor stock solution was kept on ice prior to use and was remade every two hours.
Plasma sample mixtures were placed in a disposable cup in a computer-controlled thrombelastograph hemostasis system (Model 5000, Haemoscope Corp., Niles, Ill., USA), with addition of CaCl2 as the last step to initiate clotting. Data were collected for 15 min at 37° C. Given that final clot strength is the sine quo non of fibrinogen concentration in plasma (2005, Nielsen et al., Acta Anaesthesiol Scand 49:222-231), and that elastic modulus (G, dyne/cm^2) is a measure of strength that can be determined by all commercially available thrombelastographs/thromboelastometers, G values were subsequently recorded for all samples.
Additional elastic modulus-based parameters previously described were determined for some of the experiments (2009, Nielsen et al., Fibrinolysis 20: 377-380; Nielsen et al., in press, Fibrinolysis; 2005, Nielsen et al., Acta Anaesthesiol Scand 49: 222-231; 2009, Nielsen et al., Blood Coagul Fibrinolysis 20: 448-455). The nomenclature used to describe these phenomena is as follows:
Time to maximum rate of thrombus generation (TMRTG): This is the time interval (min) observed prior to maximum speed of clot growth.
Maximum rate of thrombus generation (MRTG): This is the maximum velocity of clot growth observed (dynes/cm^2/sec).
Total Thrombus Generation (TTG): This is the total area under the velocity curve during clot growth (dynes/cm^2), representing the amount of clot strength generated during clot growth.
Thrombelastographic data are presented as mean±SD. Analyses of the effects of PHA before and after CORM-2 addition to plasma were conducted with one way analysis of variance with Holm-Sidak post hoc test (SigmaStat 3.1, Systat Software, Inc., San Jose, Calif., USA). Comparison between plasma exposed to 10 or 30 mM PHA was performed with an unpaired Student's t-test. The plasmatic strength response to increasing concentrations of CORM-2 was analyzed with one way analysis of variance with Holm-Sidakpost hoc test. Graphical representation of the data was generated with commercially available software (Origin 7.5, OriginLab Corp., Northampton, Mass., USA). A P value of <0.05 was considered significant.

Row | SMILES | elastic modulus (G), concentration-response (0-200 μM CORM-2, 5 min, no PHA) | MRTG (100 μM CORM-2) [dynes/cm^2/sec] | TMRTG (100 μM CORM-2) [min] | TTG (100 μM CORM-2) [dynes/cm^2] | elastic modulus (G) (100 μM CORM-2 vs unexposed plasma) | difference in G, 200 μM vs 100 μM CORM-2 (no PHA) [%] | elastic modulus (G) (plasma exposed to 30 mM PHA 2 min, then 100, 200 or 400 μM CORM-2 5 min) | elastic modulus (G) (PHA 10 mM 2 min prior to 100 μM CORM-2) | MRTG (PHA 10 mM alone) [dynes/cm^2/sec] | TMRTG (PHA 10 mM alone) [min] | TTG (PHA 10 mM alone) [dynes/cm^2] | elastic modulus (G) (PHA 10 mM alone) | elastic modulus (G) (PHA 30 mM added 5 min after 100 μM CORM-2) | MRTG (PHA 30 mM alone) [dynes/cm^2/sec] | TMRTG (PHA 30 mM alone) [min] | TTG (PHA 30 mM alone) [dynes/cm^2] | elastic modulus (G) (PHA 30 mM alone) | elastic modulus (G), reduction of CORM-2 mediated increase (PHA 1 or 5 mM 2 min prior to 100 μM CORM-2) | elastic modulus (G) (PHA 10 or 20 mM added 5 min after 100 μM CORM-2)
1 | [C-]#[O+].[C-]#[O+].[C-]#[O+].[C-]#[O+].[C-]#[O+].[C-]#[O+].[Cl][Ru][Cl].[Cl][Ru][Cl] [CORM-2, tricarbonyldichlororuthenium (II) dimer] | sigmoidal increase | 12.4 ± 1.4 | 2.46 ± 0.15 | 272 ± 21 | significantly increased | 10.1 | no significant increase |  |  |  |  |  |  |  |  |  |  |  | 
2 | ONc1ccccc1 [PHA, phenylhydroxylamine] |  |  |  |  |  |  |  | significantly smaller than plasma not exposed to either compound | 3.6 ± 0.9 | 3.59 ± 0.60 | 99 ± 11 | less than the other three conditions | not different from plasma not exposed to either compound | 3.9 ± 0.8 | 3.91 ± 0.70 | 106 ± 8 | significantly less than the other three conditions | little effect | negligible effects
